Source: the supplement of paper PMC12463676, “Small-molecule dissolution of stress granules by redox modulation benefits ALS models” (Nature Chemical Biology, 2025)

compound: NC(=O)CCCCC1CCSS1 [lipoamide]; assay: thermal stability z-score vs DMSO; higher = more thermally stabilized by treatment; conditions: HeLa; lipoamide concentration 100 µM; arsenate co-treatment: 1 mM arsenate 1 h
Procedure: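 Cellular thermal proteome profiling in HeLa cells. Cells were treated with 100 µM lipoamide for 1 h, with or without 1 mM arsenate for a further 1 h, then heated to ten temperatures (37-66.3 °C), and soluble protein was quantified by TMT mass spectrometry relative to 0.1% DMSO controls. The thermal stability score (sum of log2 fold changes minus the abundance score) was transformed to a z-score; mean of n = 3 experiments.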
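Further: each temperature applied for 3 min, abundance score taken as mean log2 fold change at the two lowest temperatures, z-score obtained by mean subtraction and division by SD.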

Sequence of UniProt Q14687 (Q14687 whole entry): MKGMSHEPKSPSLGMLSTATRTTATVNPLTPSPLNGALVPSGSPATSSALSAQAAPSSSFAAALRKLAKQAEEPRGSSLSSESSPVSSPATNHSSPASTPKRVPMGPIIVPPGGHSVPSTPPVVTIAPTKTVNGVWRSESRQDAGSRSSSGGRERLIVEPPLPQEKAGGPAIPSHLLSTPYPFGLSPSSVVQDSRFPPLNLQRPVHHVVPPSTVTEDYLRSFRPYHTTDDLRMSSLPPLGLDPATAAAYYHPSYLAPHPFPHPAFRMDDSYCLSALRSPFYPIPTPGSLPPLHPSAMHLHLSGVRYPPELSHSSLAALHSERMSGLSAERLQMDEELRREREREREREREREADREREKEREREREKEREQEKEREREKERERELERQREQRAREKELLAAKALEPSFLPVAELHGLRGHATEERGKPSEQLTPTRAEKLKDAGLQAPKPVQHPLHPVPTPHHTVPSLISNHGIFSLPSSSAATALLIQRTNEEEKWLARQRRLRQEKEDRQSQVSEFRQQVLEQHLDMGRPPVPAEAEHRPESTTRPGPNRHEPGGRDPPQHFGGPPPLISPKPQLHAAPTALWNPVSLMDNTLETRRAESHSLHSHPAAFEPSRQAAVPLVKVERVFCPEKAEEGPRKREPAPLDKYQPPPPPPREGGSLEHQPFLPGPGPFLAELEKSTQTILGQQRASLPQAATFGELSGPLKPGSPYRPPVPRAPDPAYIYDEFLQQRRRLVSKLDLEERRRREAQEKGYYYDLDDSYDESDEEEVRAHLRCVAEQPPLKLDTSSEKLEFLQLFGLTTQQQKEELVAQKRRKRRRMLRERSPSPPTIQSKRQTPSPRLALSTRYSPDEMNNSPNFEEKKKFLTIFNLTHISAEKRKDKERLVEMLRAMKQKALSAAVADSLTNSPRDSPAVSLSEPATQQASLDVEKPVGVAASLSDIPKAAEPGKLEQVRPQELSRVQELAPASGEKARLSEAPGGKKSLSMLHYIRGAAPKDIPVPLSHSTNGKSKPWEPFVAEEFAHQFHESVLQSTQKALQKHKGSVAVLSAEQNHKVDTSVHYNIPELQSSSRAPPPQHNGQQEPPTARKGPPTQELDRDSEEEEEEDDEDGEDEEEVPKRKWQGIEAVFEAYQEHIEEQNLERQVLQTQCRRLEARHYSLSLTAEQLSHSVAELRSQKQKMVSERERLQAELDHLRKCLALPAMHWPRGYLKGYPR
Sequence of UniProt A8MXV4 (A8MXV4 whole entry): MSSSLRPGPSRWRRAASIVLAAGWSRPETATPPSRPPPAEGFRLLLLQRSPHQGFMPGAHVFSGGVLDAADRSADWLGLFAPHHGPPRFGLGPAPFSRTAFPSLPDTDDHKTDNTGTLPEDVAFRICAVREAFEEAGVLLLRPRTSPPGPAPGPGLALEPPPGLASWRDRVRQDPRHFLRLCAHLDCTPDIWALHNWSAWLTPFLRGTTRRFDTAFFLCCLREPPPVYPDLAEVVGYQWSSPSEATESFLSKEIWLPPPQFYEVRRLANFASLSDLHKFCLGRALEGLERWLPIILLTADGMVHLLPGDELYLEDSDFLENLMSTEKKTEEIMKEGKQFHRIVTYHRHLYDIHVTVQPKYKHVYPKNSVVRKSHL
Sequence of UniProt Q8IZL8 (Q8IZL8 whole entry): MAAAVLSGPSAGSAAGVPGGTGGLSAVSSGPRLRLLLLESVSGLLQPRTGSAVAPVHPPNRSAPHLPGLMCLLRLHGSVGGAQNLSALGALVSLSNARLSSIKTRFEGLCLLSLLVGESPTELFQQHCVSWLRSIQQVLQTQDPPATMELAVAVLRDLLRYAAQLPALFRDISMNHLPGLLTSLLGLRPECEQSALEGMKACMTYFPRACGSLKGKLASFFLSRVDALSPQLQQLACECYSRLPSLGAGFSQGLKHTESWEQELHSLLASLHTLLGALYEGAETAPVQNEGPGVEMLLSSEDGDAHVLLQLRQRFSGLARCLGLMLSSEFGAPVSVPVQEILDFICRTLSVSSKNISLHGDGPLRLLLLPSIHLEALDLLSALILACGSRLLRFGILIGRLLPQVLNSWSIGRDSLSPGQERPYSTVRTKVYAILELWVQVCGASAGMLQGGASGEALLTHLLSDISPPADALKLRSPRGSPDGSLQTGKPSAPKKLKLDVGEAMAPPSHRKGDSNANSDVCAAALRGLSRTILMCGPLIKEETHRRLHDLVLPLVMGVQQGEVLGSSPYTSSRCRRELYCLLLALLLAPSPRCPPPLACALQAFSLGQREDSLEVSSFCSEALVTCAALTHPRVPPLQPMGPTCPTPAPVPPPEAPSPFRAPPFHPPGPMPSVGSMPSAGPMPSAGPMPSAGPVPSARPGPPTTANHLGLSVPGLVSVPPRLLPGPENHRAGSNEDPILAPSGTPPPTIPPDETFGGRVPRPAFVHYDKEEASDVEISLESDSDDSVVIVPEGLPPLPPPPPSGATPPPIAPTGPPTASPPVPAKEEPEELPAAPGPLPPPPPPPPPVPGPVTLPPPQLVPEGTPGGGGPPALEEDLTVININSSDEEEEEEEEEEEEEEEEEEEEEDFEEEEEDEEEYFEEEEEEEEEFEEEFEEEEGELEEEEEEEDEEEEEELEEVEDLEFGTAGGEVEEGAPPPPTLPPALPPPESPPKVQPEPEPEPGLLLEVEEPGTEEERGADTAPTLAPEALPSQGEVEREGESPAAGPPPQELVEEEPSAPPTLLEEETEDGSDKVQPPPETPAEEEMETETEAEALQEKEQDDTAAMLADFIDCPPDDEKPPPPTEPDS
Sequence of UniProt P48507 (P48507 whole entry): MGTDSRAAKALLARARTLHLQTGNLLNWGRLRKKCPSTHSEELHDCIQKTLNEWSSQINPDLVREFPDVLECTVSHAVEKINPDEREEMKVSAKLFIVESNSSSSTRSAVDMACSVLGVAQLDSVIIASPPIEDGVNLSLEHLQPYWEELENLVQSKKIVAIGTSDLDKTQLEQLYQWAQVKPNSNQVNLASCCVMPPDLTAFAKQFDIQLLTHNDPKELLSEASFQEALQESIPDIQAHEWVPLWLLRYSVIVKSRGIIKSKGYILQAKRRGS

Compared with RHBDF2 (UniProt Q6PJF5), GCLM (UniProt P48507) is higher in thermal stability z-score: -0.0324 for the first, 1.62 for the second.

Compared with RAB2A (UniProt P61019), SMAD2 (UniProt Q15796) is lower in thermal stability z-score: 0.405 for the first, -0.492 for the second.

First: GALNT1 (UniProt Q10472)
Second: NAA30 (UniProt Q147X3)
The thermal stability z-score of the first is lower: -0.568 for the first, -0.282 for the second.

Going from ARID4B (UniProt Q4LE39) to PLXNA2 (UniProt O75051), the thermal stability z-score rises from 0.0389 to 0.937.

Going from RC3H1 (UniProt Q5TC82) to DDI2 (UniProt Q5TDH0), the thermal stability z-score rises from -0.195 to -0.174.

Compared with IFIT3 (UniProt O14879), RRP1 (UniProt P56182) is higher in thermal stability z-score: 0.00563 for the first, 0.0258 for the second.

First: ARHGEF1 (UniProt Q92888)
Second: AMPD2 (UniProt Q01433)
The thermal stability z-score of the first is lower: -0.381 for the first, 0.297 for the second.

Compared with MSMO1 (UniProt Q15800), ATP2B2 (UniProt Q01814) is higher in thermal stability z-score: -1.28 for the first, -0.146 for the second.

Compared with USF1 (UniProt P22415), GSE1 (UniProt Q14687) is higher in thermal stability z-score: 0.0459 for the first, 0.0903 for the second.

Compared with UBA5 (UniProt Q9GZZ9), NUDT19 (UniProt A8MXV4) is higher in thermal stability z-score: -0.815 for the first, -0.133 for the second.

First: SLAIN2 (UniProt Q9P270)
Second: FAM207A (UniProt Q9NSI2)
The thermal stability z-score of the first is higher: 0.251 for the first, 0.062 for the second.

Compared with PELP1 (UniProt Q8IZL8), UBXN1 (UniProt Q04323) is lower in thermal stability z-score: 1.14 for the first, 0.155 for the second.

First: NUP88 (UniProt Q99567)
Second: PNPLA4 (UniProt P41247)
The thermal stability z-score of the first is lower: -0.607 for the first, 0.634 for the second.

Going from SLC5A3 (UniProt P53794) to AAMDC (UniProt Q9H7C9), the thermal stability z-score rises from -0.536 to 1.03.

First: GGA3 (UniProt Q9NZ52)
Second: LARP7 (UniProt Q4G0J3)
The thermal stability z-score of the first is lower: -0.3 for the first, 0.34 for the second.

Going from OSBPL10 (UniProt Q9BXB5) to POGZ (UniProt Q7Z3K3), the thermal stability z-score rises from -1.14 to -0.198.

Compared with DRAP1 (UniProt Q14919), UXT (UniProt Q9UBK9) is higher in thermal stability z-score: -0.781 for the first, 0.497 for the second.

First: GTF2A2 (UniProt P52657)
Second: SNRPA1 (UniProt P09661)
The thermal stability z-score of the first is lower: -0.322 for the first, 1.91 for the second.

same assay, conditions: HeLa; lipoamide concentration 100 µM; arsenate co-treatment: none

First: MCC (UniProt P23508)
Second: CD276 (UniProt Q5ZPR3)
The thermal stability z-score of the first is higher: -0.0517 for the first, -0.174 for the second.

First: TRABD (UniProt Q9H4I3)
Second: RPN2 (UniProt P04844)
The thermal stability z-score of the first is higher: 0.172 for the first, -1.79 for the second.

Going from BCAS3 (UniProt Q9H6U6) to AP2A2 (UniProt O94973), the thermal stability z-score falls from 0.561 to -0.149.

First: BCL9 (UniProt O00512)
Second: BUD31 (UniProt P41223)
The thermal stability z-score of the first is higher: 1.23 for the first, 0.568 for the second.

First: DSP (UniProt P15924)
Second: NFIB (UniProt O00712)
The thermal stability z-score of the first is higher: 3.94 for the first, -0.437 for the second.

First: HSD17B7 (UniProt P56937)
Second: PDCD11 (UniProt Q14690)
The thermal stability z-score of the first is higher: 0.543 for the first, -0.334 for the second.

Compared with SEC11C (UniProt Q9BY50), ZNF579 (UniProt Q8NAF0) is higher in thermal stability z-score: -0.842 for the first, -0.434 for the second.

Compared with ST7 (UniProt Q9NRC1), CCDC6 (UniProt Q16204) is lower in thermal stability z-score: 0.0296 for the first, -0.185 for the second.

Compared with MOB2 (UniProt Q70IA6), DOCK10 (UniProt Q96BY6) is lower in thermal stability z-score: -0.176 for the first, -0.259 for the second.

Going from POLR2H (UniProt P52434) to KPNA2 (UniProt P52292), the thermal stability z-score falls from 1.03 to -0.118.

Compared with DPH1 (UniProt Q9BZG8), PIP4K2A (UniProt P48426) is higher in thermal stability z-score: -0.119 for the first, 0.103 for the second.

First: COPS6 (UniProt Q7L5N1)
Second: SYNJ2 (UniProt O15056)
The thermal stability z-score of the first is lower: -0.522 for the first, 0.0587 for the second.

First: PSMD7 (UniProt P51665)
Second: NEGR1 (UniProt Q7Z3B1)
The thermal stability z-score of the first is higher: -0.0777 for the first, -0.0845 for the second.

Going from CAMK1D (UniProt Q8IU85) to RAB9A (UniProt P51151), the thermal stability z-score rises from -0.221 to 0.721.

First: QRSL1 (UniProt Q9H0R6)
Second: DENR (UniProt O43583)
The thermal stability z-score of the first is lower: -2.57 for the first, -0.188 for the second.

Compared with KYAT3 (UniProt Q6YP21), SUMO2 (UniProt P61956) is higher in thermal stability z-score: 0.185 for the first, 1.59 for the second.

Compared with NAA40 (UniProt Q86UY6), ZNF346 (UniProt Q9UL40) is lower in thermal stability z-score: 0.2 for the first, 0.0809 for the second.

First: YTHDF3 (UniProt Q7Z739)
Second: RHBDF2 (UniProt Q6PJF5)
Sequence of UniProt Q6PJF5 (Q6PJF5 whole entry): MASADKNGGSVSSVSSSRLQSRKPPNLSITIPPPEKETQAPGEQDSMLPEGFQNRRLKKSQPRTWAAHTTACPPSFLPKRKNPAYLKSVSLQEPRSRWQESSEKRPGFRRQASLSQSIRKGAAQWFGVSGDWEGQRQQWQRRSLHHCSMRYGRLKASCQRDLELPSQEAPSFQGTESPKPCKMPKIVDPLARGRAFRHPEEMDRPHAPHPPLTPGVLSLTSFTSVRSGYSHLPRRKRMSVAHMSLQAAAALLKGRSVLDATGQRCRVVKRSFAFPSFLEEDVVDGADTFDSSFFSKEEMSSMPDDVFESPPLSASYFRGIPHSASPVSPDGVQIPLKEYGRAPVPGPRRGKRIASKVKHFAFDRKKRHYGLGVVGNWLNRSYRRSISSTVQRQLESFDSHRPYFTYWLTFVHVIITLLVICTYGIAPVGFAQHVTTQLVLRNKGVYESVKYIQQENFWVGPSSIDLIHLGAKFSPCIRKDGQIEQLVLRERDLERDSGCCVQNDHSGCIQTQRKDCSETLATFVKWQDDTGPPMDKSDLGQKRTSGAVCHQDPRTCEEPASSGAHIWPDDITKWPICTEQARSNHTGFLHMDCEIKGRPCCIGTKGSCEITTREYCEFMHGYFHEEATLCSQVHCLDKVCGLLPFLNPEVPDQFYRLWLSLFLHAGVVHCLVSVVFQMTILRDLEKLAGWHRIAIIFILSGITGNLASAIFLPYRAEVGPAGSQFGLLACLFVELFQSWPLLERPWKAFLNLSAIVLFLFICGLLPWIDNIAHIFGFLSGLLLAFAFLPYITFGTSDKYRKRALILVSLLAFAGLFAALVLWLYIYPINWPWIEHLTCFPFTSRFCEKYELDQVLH
The thermal stability z-score of the first is higher: 0.111 for the first, -0.158 for the second.

Going from GCLM (UniProt P48507) to RAB2A (UniProt P61019), the thermal stability z-score falls from 0.394 to 0.206.

Compared with SMAD2 (UniProt Q15796), GALNT1 (UniProt Q10472) is lower in thermal stability z-score: 0.118 for the first, -0.256 for the second.

Going from NAA30 (UniProt Q147X3) to ARID4B (UniProt Q4LE39), the thermal stability z-score falls from 0.317 to 0.0738.

First: PLXNA2 (UniProt O75051)
Second: RC3H1 (UniProt Q5TC82)
Sequence of UniProt Q5TC82 (Q5TC82 whole entry): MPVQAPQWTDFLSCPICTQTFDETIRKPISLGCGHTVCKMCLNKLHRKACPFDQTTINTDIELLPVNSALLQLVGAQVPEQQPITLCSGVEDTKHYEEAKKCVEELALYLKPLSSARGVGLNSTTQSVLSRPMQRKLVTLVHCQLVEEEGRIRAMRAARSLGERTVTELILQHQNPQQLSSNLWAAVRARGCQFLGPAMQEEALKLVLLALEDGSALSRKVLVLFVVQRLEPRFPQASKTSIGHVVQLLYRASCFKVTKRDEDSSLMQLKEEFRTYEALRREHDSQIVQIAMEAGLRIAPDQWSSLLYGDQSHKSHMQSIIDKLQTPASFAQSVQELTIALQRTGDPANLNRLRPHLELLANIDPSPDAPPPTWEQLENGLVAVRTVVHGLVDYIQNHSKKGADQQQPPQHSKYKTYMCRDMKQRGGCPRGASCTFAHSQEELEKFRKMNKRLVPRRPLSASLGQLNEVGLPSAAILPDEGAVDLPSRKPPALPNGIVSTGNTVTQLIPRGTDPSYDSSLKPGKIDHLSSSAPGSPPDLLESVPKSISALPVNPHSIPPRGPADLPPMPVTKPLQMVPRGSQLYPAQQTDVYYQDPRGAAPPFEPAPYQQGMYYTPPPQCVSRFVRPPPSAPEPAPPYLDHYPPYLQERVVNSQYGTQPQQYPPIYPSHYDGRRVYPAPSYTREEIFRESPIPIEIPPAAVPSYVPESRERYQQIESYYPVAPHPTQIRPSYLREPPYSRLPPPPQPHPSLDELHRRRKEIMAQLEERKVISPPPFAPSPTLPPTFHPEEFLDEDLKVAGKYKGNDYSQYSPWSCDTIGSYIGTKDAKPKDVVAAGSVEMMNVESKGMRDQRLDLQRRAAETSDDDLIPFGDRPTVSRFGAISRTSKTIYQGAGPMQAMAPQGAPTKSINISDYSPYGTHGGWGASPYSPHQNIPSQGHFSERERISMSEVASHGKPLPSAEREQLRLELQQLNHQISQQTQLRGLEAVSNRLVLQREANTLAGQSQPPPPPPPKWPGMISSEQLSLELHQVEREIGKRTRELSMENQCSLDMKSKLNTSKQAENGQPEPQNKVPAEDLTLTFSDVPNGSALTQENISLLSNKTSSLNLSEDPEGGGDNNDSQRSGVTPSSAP
The thermal stability z-score of the first is higher: 1.3 for the first, -0.0428 for the second.

Going from DDI2 (UniProt Q5TDH0) to IFIT3 (UniProt O14879), the thermal stability z-score rises from -0.209 to -0.0242.

Going from RRP1 (UniProt P56182) to ARHGEF1 (UniProt Q92888), the thermal stability z-score falls from 0.131 to -0.242.

Going from AMPD2 (UniProt Q01433) to MSMO1 (UniProt Q15800), the thermal stability z-score falls from -0.25 to -1.47.

First: ATP2B2 (UniProt Q01814)
Second: USF1 (UniProt P22415)
The thermal stability z-score of the first is lower: -0.424 for the first, -0.169 for the second.

Compared with GSE1 (UniProt Q14687), UBA5 (UniProt Q9GZZ9) is lower in thermal stability z-score: 0.0397 for the first, -0.52 for the second.

Going from NUDT19 (UniProt A8MXV4) to SLAIN2 (UniProt Q9P270), the thermal stability z-score rises from 0.126 to 0.508.

Going from FAM207A (UniProt Q9NSI2) to PELP1 (UniProt Q8IZL8), the thermal stability z-score falls from 0.578 to 0.206.

Going from UBXN1 (UniProt Q04323) to NUP88 (UniProt Q99567), the thermal stability z-score falls from 0.25 to -0.513.

Compared with PNPLA4 (UniProt P41247), SLC5A3 (UniProt P53794) is lower in thermal stability z-score: 0.101 for the first, -0.363 for the second.

Going from AAMDC (UniProt Q9H7C9) to GGA3 (UniProt Q9NZ52), the thermal stability z-score falls from 0.608 to 0.0568.

Compared with LARP7 (UniProt Q4G0J3), OSBPL10 (UniProt Q9BXB5) is lower in thermal stability z-score: 0.152 for the first, -0.711 for the second.

Going from POGZ (UniProt Q7Z3K3) to DRAP1 (UniProt Q14919), the thermal stability z-score falls from 0.0592 to -0.122.

First: UXT (UniProt Q9UBK9)
Second: GTF2A2 (UniProt P52657)
The thermal stability z-score of the first is higher: 0.378 for the first, -0.782 for the second.

SNRPA1 (UniProt P09661) showed a thermal stability z-score of 1.08.
